Measurements taken from patent US20230407243A1, “GENETIC PLATFORM TO INVESTIGATE THE FUNCTIONS OF BACTERIAL DRUG EFFLUX PUMPS” (priority 2022, published 2023).

What was measured:
K-12 wcaC (pCA24N) = assay: microbe, parasite or virus in culture; conditions: Escherichia coli, 0.1 mM IPTG
Procedure: To enable comparison between efflux production in different genetic backgrounds, each efflux pump-encoding gene was also integrated into the genome of the wild-type BW25113 strain, the single gene deletion mutant from the Keio Collection, and EKO-35. Strains of interest were propagated on LB agar at 37° C. Cell inoculum was prepared using the colony resuspension method and applied to a 96-well well plate (VWR) in technical duplicate, and the minimum inhibitory concentrations were determined according to Clinical & Laboratory Standards Institute (CLSI) protocols in MHB II (Patel J. B. et al, 2015). The plates were incubated for 18 h (Multitron Shaker, Infors HT) at 37° C. with aeration at 900 rpm. The plates were equilibrated to room temperature before the OD600 nm was measured using a BioTek Synergy H1 microplate reader. For interplay profiling, blank subtracted OD600 nm values >0.1 were considered to represent growth.
To assess fitness of EKO-35 expressing wild-type copies of the genes identified to harbor nonsynonymous mutations, Inventors obtained clones from the E. coli ASKA library (Kitagawa, M. et al., 2005) with the rspA, tufA, pitA, wcaC, gyrB, and yjfC genes carried on plasmids, with gene expression under the control of an IPTG-inducible promoter. The ASKA plasmids were verified using Sanger sequencing and gene expression was induced with 0.1 mM IPTG. In the wild-type E. coli K-12 strain, the plasmids were maintained with 25 μg/mL chloramphenicol.

EKO-35 yjfC (pCA24N) = assay: MIC of strains harboring ASKA plasmids; format: cell-based, Escherichia coli; conditions: 0.1 mM IPTG; for MIC: EKO-35 yjfC; for MIC, EKO-35 yjfC (pCA24N), Chlor +: 4 μg/mL chloramphenicol selection; for MIC, EKO-35 yjfC (pCA24N), Chlor −: no plasmid selection
EKO-35 gyrB (pCA24N) = assay: MIC of strains harboring ASKA plasmids; format: cell-based, Escherichia coli; conditions: 0.1 mM IPTG; for MIC, EKO-35 gyrB (pCA24N), Chlor +: 4 μg/mL chloramphenicol selection; for MIC, EKO-35 gyrB (pCA24N), Chlor −: no plasmid selection; for MIC: EKO-35 gyrB
EKO-35 rspA (pCA24N) = assay: MIC of strains harboring ASKA plasmids; format: cell-based, Escherichia coli; conditions: 0.1 mM IPTG; for MIC, EKO-35 rspA (pCA24N), Chlor +: 4 μg/mL chloramphenicol selection; for MIC, EKO-35 rspA (pCA24N), Chlor −: no plasmid selection; for MIC: EKO-35 rspA
EKO-35 pitA (pCA24N) = assay: MIC of strains harboring ASKA plasmids; format: cell-based, Escherichia coli; conditions: 0.1 mM IPTG; for MIC, EKO-35 pitA (pCA24N), Chlor −: no plasmid selection

Compound | MIC (K-12 wcaC (pCA24N); Chlor + (25 μg/mL)) | MIC (K-12 wcaC (pCA24N); Chlor −) | MIC (EKO-35 yjfC (pCA24N); Chlor + (4 μg/mL)) | MIC, EKO-35 gyrB (pCA24N), Chlor + (EKO-35 gyrB (pCA24N)) | MIC, EKO-35 gyrB (pCA24N), Chlor − (EKO-35 gyrB (pCA24N)) | MIC, EKO-35 rspA (pCA24N), Chlor + (EKO-35 rspA (pCA24N)) | MIC, EKO-35 rspA (pCA24N), Chlor − (EKO-35 rspA (pCA24N)) | MIC, EKO-35 pitA (pCA24N), Chlor − (EKO-35 pitA (pCA24N)) | MIC, EKO-35 yjfC (pCA24N), Chlor + (EKO-35 yjfC (pCA24N)) | MIC, EKO-35 yjfC (pCA24N), Chlor − (EKO-35 yjfC (pCA24N)) | MIC (EKO-35 gyrB (pCA24N); Chlor + (4 μg/mL)) | MIC (EKO-35 gyrB (pCA24N); Chlor −) | MIC (EKO-35 rspA (pCA24N); Chlor + (4 μg/mL)) | MIC (EKO-35 rspA (pCA24N); Chlor −) | MIC (EKO-35 pitA (pCA24N); EKO-35 pitA, Chlor −) | MIC (EKO-35 yjfC (pCA24N); Chlor −)
COc1cc(Cc2cnc(N)nc2N)cc(OC)c1OC [trimethoprim] | 0.195 µg/mL | 1.56 µg/mL | 0.391 µg/mL |  |  |  |  |  |  |  |  |  |  |  |  | 
N#Cc1ccc(-c2c(NC(=O)C(Cl)Cl)oc(-c3cccs3)c2C#N)cc1 [compound 2] |  |  |  | >5 μg/mL | >5 μg/mL | >5 μg/mL | >5 μg/mL | >5 μg/mL | >5 μg/mL | >5 μg/mL |  |  |  |  |  | 
benzalkonium chloride |  |  | 0.781 µg/mL |  |  |  |  |  |  |  | 0.781 µg/mL | 0.781 µg/mL | 0.781 µg/mL | 0.781 µg/mL | 0.781 µg/mL | 0.781 µg/mL
Cn1cc(Br)c(-c2cccc(NC(=O)Nc3ccc(OC(F)(F)F)cc3)c2)n1 [compound 14] |  |  |  | >5 μg/mL | >5 μg/mL | >5 μg/mL | >5 μg/mL | >5 μg/mL | >5 μg/mL | >5 μg/mL |  |  |  |  |  | 
